Measured values from US20230293526A1, “METHOD FOR TREATING CANCER WITH A REVERSE TRANSCRIPTASE INHIBITOR” (PrimeFour Therapeutics, Inc., priority 2020, published 2023).

Assays:
human LINE-1 = assay: Human LINE-1 (L1) retrotransposition dual-luciferase reporter assay in HeLa cells; type: cell-based; settings: Homo sapiens, HeLa, 72 h, read-out: Human LINE-1 IC50 (Human L1 activity inhibition)
Outline: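 Compound dilution series (final DMSO 0.2%) added right after transfecting HeLa cells with the pYX017 L1 dual-luciferase reporter; 72 h culture at 37 °C, 5% CO2, triplicates. IC50 fitted by non-linear logistic regression to firefly-to-Renilla luminescence ratio (×10,000).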

cancer cell lines = assay: Cancer cell proliferation activity of representative nucleosides, CellTiterGlo 72 h (Example 7, Tables 8 and 9); type: cell-based; settings: 72 h
Outline: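 Percent viability was set against 0.1% DMSO (100%) and 10 μM staurosporine (0%), with signal from CellTiterGlo luminescence. Dose-response treatment began one day after seeding and lasted 72 h at 37° C under 5% or 10% CO2, with 0.1% final DMSO.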

C#C[C@]1(CO)O[C@@H](n2ccc(N)nc2=O)C[C@@H]1O [compound 7, 4-amino-1-((2R,4S,5R)-5-ethynyl-4-hydroxy-5 (hydroxymethyl)tetrahydrofuran-2-yl)pyrimidin-2(1H)-one]
IC50 (human LINE-1): 9.7 nM
IC50 (cancer cell lines; 72 h, 5637, bladder): 1240 nM
IC50 (cancer cell lines; CLS439, bladder): > 50000 nM
IC50 (cancer cell lines; HS729, muscle): 2100 nM
IC50 (cancer cell lines; J82, bladder): 2770 nM
IC50 (cancer cell lines; JAR, placenta): > 50000 nM
IC50 (cancer cell lines; MT3, breast): 570 nM
IC50 (cancer cell lines; PC3, prostate): 1090 nM
IC50 (cancer cell lines; RD, muscle): 3860 nM
IC50 (cancer cell lines; T24, bladder): 1030 nM
IC50 (cancer cell lines; Homo sapiens, 22Rv1, 72 h, 22RV1, prostate): 4800 nM
IC50 (cancer cell lines; Homo sapiens, 786-0, 72 h, 786O, kidney): 4280 nM
IC50 (cancer cell lines; Homo sapiens, A204, 72 h, A204, muscle): 180 nM
IC50 (cancer cell lines; Homo sapiens, A549, 72 h, A549, lung): 2190 nM
IC50 (cancer cell lines; Homo sapiens, A673, 72 h, A673, bone): 1970 nM
IC50 (cancer cell lines; Homo sapiens, A2780, 72 h, A2780, ovary): 2720 nM
IC50 (cancer cell lines; Homo sapiens, A-375, 72 h, A375, skin): 3540 nM
IC50 (cancer cell lines; Homo sapiens, A-431, 72 h, A431, skin): 2010 nM
IC50 (cancer cell lines; Homo sapiens, ACHN, kidney): 2760 nM
IC50 (cancer cell lines; Homo sapiens, ASPC1, 72 h, ASPC1, pancreas): 1230 nM
IC50 (cancer cell lines; Homo sapiens, BT-20, 72 h, BT20, breast): > 50000 nM
IC50 (cancer cell lines; Homo sapiens, BXPC-3, 72 h, BXPC3, pancreas): 4120 nM
IC50 (cancer cell lines; Homo sapiens, C-33-A, C33A, endometrial): 1030 nM
IC50 (cancer cell lines; Homo sapiens, CAKI-1, 72 h, CAKI1, kidney): 450 nM
IC50 (cancer cell lines; Homo sapiens, COLO 205, 72 h, COLO205, colon): 290 nM
IC50 (cancer cell lines; Homo sapiens, COLO-678, 72 h, COLO678, colon): > 50000 nM
IC50 (cancer cell lines; Homo sapiens, Ca-Ski, CASKI, endometrial): > 50000 nM
IC50 (cancer cell lines; Homo sapiens, Calu-6, 72 h, CALU6, lung): 6330 nM
IC50 (cancer cell lines; Homo sapiens, DLD-1, 72 h, DLD1, colon): 4630 nM
IC50 (cancer cell lines; Homo sapiens, DU-145, 72 h, DU145, prostate): 3400 nM
IC50 (cancer cell lines; Homo sapiens, EFO-21, 72 h, EFO21, ovary): > 50000 nM
IC50 (cancer cell lines; Homo sapiens, EJ-28, 72 h, EJ28, bladder): 3050 nM
IC50 (cancer cell lines; Homo sapiens, Granta-519, 72 h, GRANTA-519, hematological): 330 nM
IC50 (cancer cell lines; Homo sapiens, HCT-15, 72 h, HCT15, colon): 3280 nM
IC50 (cancer cell lines; Homo sapiens, HCT-116, 72 h, HCT116, colon): 2440 nM
IC50 (cancer cell lines; Homo sapiens, HEK293, 72 h, HEK293, kidney): > 50000 nM
IC50 (cancer cell lines; Homo sapiens, HL-60, 72 h, HL-60, hematological): 2030 nM
IC50 (cancer cell lines; Homo sapiens, HT-29, 72 h, HT29, colon): 4060 nM
IC50 (cancer cell lines; Homo sapiens, HT-1080, 72 h, HT1080, connective tissue): 1580 nM
IC50 (cancer cell lines; Homo sapiens, HeLa, endometrial): 2110 nM
IC50 (cancer cell lines; Homo sapiens, HepG2, 72 h, HEPG2, liver): 3080 nM
IC50 (cancer cell lines; Homo sapiens, Hs-578T, HS578T, breast): 4730 nM
IC50 (cancer cell lines; Homo sapiens, IGROV-1, 72 h, IGROV1, ovary): 3420 nM
IC50 (cancer cell lines; Homo sapiens, IMR-90, 72 h, IMR90, lung): > 50000 nM
IC50 (cancer cell lines; Homo sapiens, JEG-3, 72 h, JEG3, placenta): > 50000 nM
IC50 (cancer cell lines; Homo sapiens, JIMT-1, 72 h, JIMT1, breast): 820 nM
IC50 (cancer cell lines; Homo sapiens, K562, 72 h, K-562, hematological): 3520 nM
IC50 (cancer cell lines; Homo sapiens, Kasumi 1, 72 h, KASUMI-1, hematological): 320 nM
IC50 (cancer cell lines; Homo sapiens, L-363, 72 h, L-363, hematological): > 50000 nM
IC50 (cancer cell lines; Homo sapiens, LoVo, colon): 1900 nM
IC50 (cancer cell lines; Homo sapiens, MCF7, 72 h, MCF7, breast): > 50000 nM
IC50 (cancer cell lines; Homo sapiens, MDA-MB-231, 72 h, MDAMB231, breast): 480 nM
IC50 (cancer cell lines; Homo sapiens, MDA-MB-435, 72 h, MDAMB435, skin): 3490 nM
IC50 (cancer cell lines; Homo sapiens, MDA-MB-436, 72 h, MDAMB436, breast): 3800 nM
IC50 (cancer cell lines; Homo sapiens, MDA-MB-468, 72 h, MDAMB468, breast): > 50000 nM
IC50 (cancer cell lines; Homo sapiens, MG-63, 72 h, MG63, bone): 2930 nM
IC50 (cancer cell lines; Homo sapiens, MHH-ES-1, 72 h, MHHES1, bone): 2060 nM
IC50 (cancer cell lines; Homo sapiens, MIA PaCa-2, 72 h, MIAPACA2, pancreas): 5540 nM
IC50 (cancer cell lines; Homo sapiens, MINO, hematological): 200 nM
IC50 (cancer cell lines; Homo sapiens, MV4-11, 72 h, MV4-11, hematological): 4320 nM
IC50 (cancer cell lines; Homo sapiens, NCI-H23, 72 h, NCI-H23, lung): 2790 nM
IC50 (cancer cell lines; Homo sapiens, NCI-H82, 72 h, NCIH82, lung): 17000 nM
IC50 (cancer cell lines; Homo sapiens, NCI-H292, 72 h, NCIH292, lung): 1940 nM
IC50 (cancer cell lines; Homo sapiens, NCI-H460, 72 h, NCIH460, ung): 2990 nM
IC50 (cancer cell lines; Homo sapiens, OVCAR-3, 72 h, OVCAR3, ovary): 2390 nM
IC50 (cancer cell lines; Homo sapiens, OVCAR-4, 72 h, OVCAR4, ovary): > 50000 nM
IC50 (cancer cell lines; Homo sapiens, PANC-1, 72 h, PANC1, pancreas): > 50000 nM
IC50 (cancer cell lines; Homo sapiens, PLC-PRF-5, 72 h, PLCPRF5, liver): > 50000 nM
IC50 (cancer cell lines; Homo sapiens, Panc1005, 72 h, PANC1005, pancreas): 2570 nM
IC50 (cancer cell lines; Homo sapiens, Ramos, hematological): 370 nM
IC50 (cancer cell lines; Homo sapiens, SAOS-2, 72 h, SAOS2, bone): 640 nM
IC50 (cancer cell lines; Homo sapiens, SK-BR-3, 72 h, SKBR3, breast): 2110 nM
IC50 (cancer cell lines; Homo sapiens, SK-HEP1, 72 h, SKHEP1, liver): 1290 nM
IC50 (cancer cell lines; Homo sapiens, SK-LMS-1, 72 h, SKLMS1, uterus): 4200 nM
IC50 (cancer cell lines; Homo sapiens, SK-MEL-5, 72 h, SKMEL5, skin): > 50000 nM
IC50 (cancer cell lines; Homo sapiens, SK-MEL-28, 72 h, SKMEL28, skin): > 50000 nM
IC50 (cancer cell lines; Homo sapiens, SK-OV-3, 72 h, SKOV3, ovary): 3110 nM
IC50 (cancer cell lines; Homo sapiens, SU-DHL10, 72 h, SU-DHL-10, hematological): 690 nM
IC50 (cancer cell lines; Homo sapiens, SU-DHL-6, 72 h, SU-DHL-6, hematological): 1060 nM
IC50 (cancer cell lines; Homo sapiens, SW-620, 72 h, SW620, colon): 2930 nM
IC50 (cancer cell lines; Homo sapiens, TE-671, 72 h, TE671, muscle): 3490 nM
IC50 (cancer cell lines; Homo sapiens, THP-1, 72 h, THP-1, hematological): 3430 nM
IC50 (cancer cell lines; Homo sapiens, U2OS, bone): > 50000 nM
IC50 (cancer cell lines; Homo sapiens, UMUC3, 72 h, UMUC3, bladder): 3070 nM
IC50 (cancer cell lines; Homo sapiens, UO-31, 72 h, UO31, kidney): 1530 nM
IC50 (cancer cell lines; Homo sapiens, WSU-NHL, hematological): 340 nM
IC50 (cancer cell lines; NCI-H358M, NCIH358M, lung): 290 nM
IC50 (cancer cell lines; PBMC, hematological): > 50000 nM
IC50 (cancer cell lines; RD-ES, RDES, bone): > 50000 nM
